System: Serpula himantioides strain ATCC 64894
Test: EN 113 wood block decay test, Serpula himantioides, 16 weeks
Type: cell-based
Text: Five replicates were made per each treatment.
As shown in the above tables, the copper composition contains about 9% by weight copper, while both of the azole compositions contain about 10% by weight azole. The DQA cation was applied to the wood as a solution of 50 weight percent didecyldimethyl ammonium carbonate (DDACarbonate).
The wood samples were exposed for 16 weeks.

Substance: didecyldimethyl ammonium carbonate [DDACarbonate]
- 16 weeks of exposure Average weight loss % of untreated weight loss (Cu retention 0, DDACarbonate retention 0.25 Kg/m^3, 16 weeks): 84%
- 16 weeks of exposure Average weight loss % of untreated weight loss (Cu retention 0, DDACarbonate retention 0.5 Kg/m^3, 16 weeks): 67%
- protection of wood against decay by Serpula himantioides (in words) (summary of the decay tests, 16 weeks): relatively little protection
